Test results taken from ChEMBL document CHEMBL1949518, “Synthesis and biological evaluation of some new 2-pyrazolines bearing benzene sulfonamide moiety as potential anti-inflammatory and anti-cancer agents” (Eur J Med Chem, 2011).

What was measured:
Rattus norvegicus [1] = assay: Antiinflammatory activity in Wistar rat assessed as inhibition of carrageenan-induced paw edema at 20 mg/kg, po administered 30 mins before carrageenan challenge measured after 3 hrs; type: functional
Rattus norvegicus [2] = assay: Antiinflammatory activity in Wistar rat assessed as inhibition of carrageenan-induced paw edema at 20 mg/kg, po administered 30 mins before carrageenan challenge measured after 5 hrs; type: functional
Rattus norvegicus [3] = assay: Ulcerogenic activity in fasted Wistar albino rat at 60 mg/kg, po administered as 3 dose measured after 6 hrs post last dose; type: toxicity, organism-based; set-up: dose 60 mg/kg, route oral; details: in vivo
Mus musculus [4] = assay: Toxicity in Swiss albino mouse assessed as mortality at 100 mg/kg, po measured up to 24 hrs; type: organism-based; set-up: dose 100 mg/kg, route oral; details: in vivo
Mus musculus [5] = assay: Toxicity in Swiss albino mouse assessed as behavioral change at 100 mg/kg, po measured up to 24 hrs; type: organism-based; set-up: dose 100 mg/kg, route oral; details: in vivo
[6] = target: Prostaglandin G/H synthase 1 (Bos taurus, UniProt O62664); assay: Inhibition of bovine COX1 assessed as PGE2 formation preincubated for 10 mins by ELISA
Prostaglandin G/H synthase 1, sequence (O62664 whole entry): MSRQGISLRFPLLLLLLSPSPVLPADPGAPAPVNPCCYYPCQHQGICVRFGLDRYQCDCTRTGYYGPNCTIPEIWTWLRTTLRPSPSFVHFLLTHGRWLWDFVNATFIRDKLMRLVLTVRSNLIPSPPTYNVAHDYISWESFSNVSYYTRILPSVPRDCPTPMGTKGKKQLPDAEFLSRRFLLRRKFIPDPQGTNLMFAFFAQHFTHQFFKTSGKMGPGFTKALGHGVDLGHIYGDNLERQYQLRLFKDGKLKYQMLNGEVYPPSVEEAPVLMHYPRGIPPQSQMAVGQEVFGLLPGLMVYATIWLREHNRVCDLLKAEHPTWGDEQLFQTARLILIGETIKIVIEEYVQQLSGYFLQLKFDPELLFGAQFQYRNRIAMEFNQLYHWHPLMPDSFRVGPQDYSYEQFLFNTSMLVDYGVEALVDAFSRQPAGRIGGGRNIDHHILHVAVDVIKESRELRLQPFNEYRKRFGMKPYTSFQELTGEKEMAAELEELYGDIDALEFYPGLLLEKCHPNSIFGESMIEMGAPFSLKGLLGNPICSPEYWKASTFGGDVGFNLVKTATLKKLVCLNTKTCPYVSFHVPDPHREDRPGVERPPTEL

## COc1cc(C2CC(c3c(O)cc(C)c(Cl)c3C)=NN2c2ccc(S(N)(=O)=O)cc2)cc(OC)c1OC (stereo unspecified)
Rattus norvegicus [1]
  inhibition in vivo at 20 mg/kg: 68.4%
Rattus norvegicus [2]
  inhibition in vivo at 20 mg/kg: 75%

## Cc1cc(O)c(C2=NN(c3ccc(S(N)(=O)=O)cc3)C(c3ccccc3Cl)C2)c(C)c1Cl (stereo unspecified)
Rattus norvegicus [1]
  inhibition in vivo at 20 mg/kg: 53%
Rattus norvegicus [2]
  inhibition in vivo at 20 mg/kg: 45.5%

## Cc1cc(O)c(C2=NN(c3ccc(S(N)(=O)=O)cc3)C(c3ccccc3)C2)c(C)c1Cl (stereo unspecified)
Rattus norvegicus [1]
  inhibition in vivo at 20 mg/kg: 20%
Rattus norvegicus [2]
  inhibition in vivo at 20 mg/kg: 36.4%

## COc1ccc(C2CC(c3c(O)cc(C)c(Cl)c3C)=NN2c2ccc(S(N)(=O)=O)cc2)cc1OC (stereo unspecified)
Rattus norvegicus [1]
  inhibition in vivo at 20 mg/kg: 26.7%
Rattus norvegicus [2]
  inhibition in vivo at 20 mg/kg: 45.5%

## Cc1cc(O)c(C2=NN(c3ccc(S(N)(=O)=O)cc3)C(c3ccccc3O)C2)c(C)c1Cl (stereo unspecified)
Rattus norvegicus [1]
  inhibition in vivo at 20 mg/kg: 79%
Rattus norvegicus [3]
  Activity: Non-toxic
Mus musculus [4]
  Activity: Non-toxic
Rattus norvegicus [2]
  inhibition in vivo at 20 mg/kg: 75%
Mus musculus [5]
  Activity: Non-toxic
[6]
  IC50: 65.4 µM

## Cc1ccc(-c2cc(C(F)(F)F)nn2-c2ccc(S(N)(=O)=O)cc2)cc1 [CELECOXIB]
Rattus norvegicus [1]
  inhibition in vivo at 20 mg/kg: 79.6%
Rattus norvegicus [2]
  inhibition in vivo at 20 mg/kg: 82%
